Source: patent US12234245B2, “Sulfonimidamide compounds as inhibitors of interleukin-1 activity” (Genentech, Inc., priority 2018, dated 2025)

How the values were obtained:
[1] = molecular target: T1, NLRP3 inflammasome (Homo sapiens, UniProt Q96P20); test: NLRP3 inflammasome activation assay in PBMCs, IL-1β release (ELISA / HTRF); assay type: cell-based; set-up: were freshly isolated from human peripheral blood from healthy donors; StemCells Technologies; host or cells: primary human PBMCs, LPS-primed, nigericin-stimulated; conditions: LPS primed
Description: Some of the following assays were used to determine the inhibitory activity of the compounds on the NLRP3 inflammasome using a common inflammasome activation stimuli—nigericin.
Human peripheral blood mononuclear cells (PBMCs), consisting of lymphocytes (T, B and NK cells), monocytes and dendritic cells, were freshly isolated from human peripheral blood from healthy donors. Cells were obtained through an IRB approved donor program by iXCells Biotechnologies where all the donors were tested for bacterial and viral infections. Cells were purified from peripheral blood using ficoll gradient centrifugation.
Fresh or cryopreserved PMBCs were seeded in V-bottom 96-well plate at 0.5-1×10^5 cells per well and incubated overnight at 37° C. with 5% CO2 in RPMI 1640 medium with GlutaMAX supplement, 4.5 g/L D-glucose, 10% Fetal Bovine Serum (FBS), […] Sodium Pyruvate, 1% Penicillin/Streptomycin, 10 mM HEPES and 0.05 mM of β-mercaptoethanol. Freshly isolated or cryopreserved KCs cells were seeded in flat-bottom 96-well plates at 0.6-1.5×10^5 cells/well and incubated overnight at 37° C. 5% CO2 in RPMI 1640 Medium with GlutaMAX supplement, FBS, 1% Penicillin/Streptomycin and 10 mM HEPES. The following day, the cells were primed with 100 ng/mL of lipopolysaccharides (LPS; Sigma Aldrich) in FBS-free RPMI 1640 for 3 h. After the priming step, the media was removed and PBMCs were pre-incubated with serial concentrations of test compounds (0.00017-10 uM) or vehicle (DMSO) for 30 min in FBS-free media prior to addition of the NLRP3 activator. Cells were then stimulated with 10 uM Nigericin (Sigma Aldrich; InvivoGen) for 1.5 h. Plates were centrifuged at 1,500 rpm for 3 minutes to pellet cells and supernatant was transferred into new plates for subsequent experiments.
For ELISA assays cells were seeded into 96-well plates. Post study, supernatants were removed and the levels of mature IL-1β, IL18 and TNFα (Quantikine ELISA, R&D systems) were measured in cell conditioned media by ELISA according to manufacturer's instructions.
Human frozen PBMCs were purchased from StemCells Technologies. Cells were rapidly thawed in 37° C. water bath and resuspended in fresh assay media consisting of RPMI 1640 Medium containing 1% sodium pyruvate, 10 mM HEPES, 2.5 g/L glucose and 55 μM 2-Mercaptoethanol. Cell density was adjusted to 8.1×10^5 cells/mL. Cells were primed by adding lipopolysaccharide (Invivogen Ultrapure lipopolysaccharide from E. coli, tlrl-3pelps) at a final concentration of 100 ng/mL in cell suspension. 37 μL of cell suspension with LPS was seeded per well of a 384 well plate and incubated for 3 hours at 37° C. and 5% CO2. After priming, PBMCs were preincubated with serially diluted test compounds with starting concentration of 40 μM followed by 2-fold dilution for a 20-point curve or vehicle (DMSO) for 30 min in assay media at 37° C. and 5% CO2. Cells were then stimulated with 10 μM nigericin (Invivogen, tlrl-nig-5) for 90 min at 37° C. and 5% CO2 to activate NLRP3 dependent inflammasome pathway and IL-1β release in cell culture supernatant. Cells were centrifuged at 1200 RPM for 1 min and 40 μL of supernatant was transferred into fresh plates and stored at −80° C. until IL-1β analysis.
16 μL of supernatant was added to white 384 well HTRF plates, followed by addition of 4 μL of HTRF cocktail in each well. Plates were quickly centrifuged, sealed and incubated overnight at room temperature. Next day, HTRF signal was read on a Pherastar and ratio of 665/620 was calculated based on manufacturer's protocol to obtain concentration of IL-1β in cell culture supernatant.

[2] = molecular target: T1, NLRP3 inflammasome; test: THP-1 ASC-GFP speck assay; assay type: cell-based; set-up: host or cells: THP-1 ASC-GFP cells, PMA-differentiated, LPS-primed, nigericin-stimulated; conditions: THP-1 ASC-GFP cells, PMA differentiated, LPS primed, 10 μM nigericin; read-out: THP1 ASC Speck IC50
Description: THP-1 ASC-GFP cell line was purchased from Invivogen, San Diego, for inflammasome activation assay. THP-1 ASC-GFP cells stably express a 37.6 kDa ASC::GFP fusion protein that enables monitoring of spec formation by microscopy after activation of NLRP3 dependent inflammasome pathway. Cells were maintained at a density of 600,000 cells/mL in growth media consisting of RPMI 1640, 2 mM L-glutamine, 25 mM HEPES and 10% heat inactivated fetal bovine serum at 37° C. and 5% CO2. Cells were passaged every 3-4 days and used for assays for up to 20 passages.
THP-1 ASC-GFP cells were collected by centrifuging cells at 800 RPM for 5 minutes. Cell culture supernatant was removed and cells were re-suspended in fresh media at density of 1×10^6 cells/mL in assay media consisting of RPMI 1640, 2 mM L-glutamine, 25 mM HEPES and 10% heat inactivated fetal bovine serum. Phorbol 12-myristate 13-acetate (PMA) (Invivogen, tlrl-pma) was added to the cell suspension at a final concentration of 500 ng/ml and mixed thoroughly. 40,000 cells were added per well of a 384 well plate and differentiated into macrophages overnight at 37° C. and 5% CO2. Cells were primed with 1 μg/mL of lipopolysaccharide (Invivogen Ultrapure lipopolysaccharide from E. coli, tlrl-3pelps) in assay media for 3 hours at 37° C. and 5% CO2. After priming, media was removed and THP-1 ASC-GFP cells were preincubated with serially diluted test compounds with starting concentration of 40 μM followed by 2-fold dilution for a 20-point curve or vehicle (DMSO) for 30 min in assay media at 37° C. and 5% CO2. Cells were then stimulated with 10 μM nigericin (Invivogen, tlrl-nig-5) for 90 min at 37° C. and 5% CO2 to activate NLRP3 dependent inflammasome pathway and spec formation. After stimulation, cells were fixed with 4.8% paraformaldehyde (Electron Microscopy Sciences #15710-S) and incubated at room temperature for 15 min. Cells were then washed 3-times with 100 μL of phosphate buffered saline and permeabilized in the presence of premeablization/block buffer for 20 min at room temperature. Cells were then washed 3-times with 100 μL phosphate buffered saline and incubated for 1 hr at room temperature in the presence of hoechst. After staining with Hoechst, cells were washed 3-times with 100 μL phosphate buffered saline and imaged for ASC spec formation.
THP-1 ASC-GFP cells were imaged in 488 and Hoechst channels. Hoechst channel was used for cell count and 488 channel was used to identify number of GFP ASC specks in imaged fields. Percentage of cells with a spec was calculated by dividing the number of GFP positive spots by total number of cells.

[3] = 10 μM nigericin, read-out: PBMC IL-1β IC50

T1 sequence (Q96P20 whole entry): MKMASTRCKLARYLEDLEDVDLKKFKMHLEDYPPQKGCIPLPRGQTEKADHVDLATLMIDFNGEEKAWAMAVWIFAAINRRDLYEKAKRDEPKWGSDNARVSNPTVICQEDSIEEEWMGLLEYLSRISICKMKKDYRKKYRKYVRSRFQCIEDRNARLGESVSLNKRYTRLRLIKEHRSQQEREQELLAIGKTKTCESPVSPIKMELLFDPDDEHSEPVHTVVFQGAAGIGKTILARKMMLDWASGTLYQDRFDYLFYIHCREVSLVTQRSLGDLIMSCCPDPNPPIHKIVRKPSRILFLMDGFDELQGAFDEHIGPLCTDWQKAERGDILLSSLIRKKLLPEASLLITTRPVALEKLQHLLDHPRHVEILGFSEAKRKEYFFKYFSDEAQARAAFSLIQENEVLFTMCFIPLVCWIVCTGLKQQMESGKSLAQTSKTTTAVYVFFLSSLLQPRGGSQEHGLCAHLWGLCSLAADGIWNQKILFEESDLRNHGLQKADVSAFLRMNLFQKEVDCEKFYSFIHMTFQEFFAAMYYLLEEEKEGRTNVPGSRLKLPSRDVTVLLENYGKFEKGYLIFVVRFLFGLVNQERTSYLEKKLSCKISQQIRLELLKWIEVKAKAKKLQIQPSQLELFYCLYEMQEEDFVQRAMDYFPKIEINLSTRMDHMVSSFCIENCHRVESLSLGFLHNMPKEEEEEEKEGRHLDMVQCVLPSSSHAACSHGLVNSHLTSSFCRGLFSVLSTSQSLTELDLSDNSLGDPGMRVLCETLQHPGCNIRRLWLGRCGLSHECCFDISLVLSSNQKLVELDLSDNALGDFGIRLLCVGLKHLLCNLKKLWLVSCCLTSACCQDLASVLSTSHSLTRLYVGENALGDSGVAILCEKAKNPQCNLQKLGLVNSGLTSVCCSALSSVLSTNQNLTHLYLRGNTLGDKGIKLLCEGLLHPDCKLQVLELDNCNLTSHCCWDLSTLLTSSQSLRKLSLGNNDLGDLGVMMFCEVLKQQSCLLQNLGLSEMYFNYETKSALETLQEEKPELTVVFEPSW

| IC50 [2] [nM] | SMILES | also measured |
| --- | --- | --- |
| 4.3 | CC1(C)Cn2ncc(S(N)(=O)=NC(=O)Nc3c4c(cc5c3CCC5)CCC4)c2O1 (single isomer, unassigned) [Example 139] | – |
| 560 | CC1(C)Cn2ncc(S(N)(=O)=NC(=O)Nc3c4c(cc5c3CCC5)CCC4)c2O1 (single isomer, unassigned) [Example 140] | – |
| 1600 | NS(=O)(=NC(=O)Nc1c2c(cc3c1CC3)CCC2)c1cnn2c1OCCC2 (single isomer, unassigned) [Example 141] | – |
| 56 | CC1CCc2cc3c(c(NC(=O)N=S(N)(=O)c4cnn5c4OCC5)c21)CCC3 (single isomer, unassigned) [Example 144] | – |
| 3800 | CC1CCc2cc3c(c(NC(=O)N=S(N)(=O)c4cnn5c4OCC5)c21)CCC3 (single isomer, unassigned) [Example 145] | – |
| > 20000 | COC1COc2c(S(N)(=O)=NC(=O)Nc3c4c(cc5c3C(C)CC5)CCC4)cnn2C1 (single isomer, unassigned) [Example 147] | – |
| 710 | COC1COc2c(S(N)(=O)=NC(=O)Nc3c4c(cc5c3C(C)CC5)CCC4)cnn2C1 (single isomer, unassigned) [Example 148] | – |
| > 20000 | COc1cc(-c2ccc(NC(=O)N=S(N)(=O)c3cnn4c3OCC(OC)C4)c3c2CCC3)ccn1 (single isomer, unassigned) [Example 151] | – |
| 1400 | CC1(C)COc2c(S(N)(=O)=NC(=O)Nc3c4c(cc5c3CC(F)C5)CCC4)cnn2C1 (single isomer, unassigned) [Example 153] | – |
| 13 | CC1(C)COc2c(S(N)(=O)=NC(=O)Nc3c4c(cc5c3CC(F)C5)CCC4)cnn2C1 (single isomer, unassigned) [Example 156] | – |
| 710 | COc1cc(-c2ccc3c(c2NC(=O)N=S(N)(=O)c2cnn4c2OCCC4)CCO3)ccn1 (single isomer, unassigned) [Example 157] | – |
| 25 | COc1cc(-c2ccc3c(c2NC(=O)N=S(N)(=O)c2cnn4c2OCCC4)CCO3)ccn1 (single isomer, unassigned) [Example 158] | – |
| 140 | COC1CN([C@@H]2COc3c([S@@](=O)(=NC(=O)Nc4c5c(c(F)c6c4CCC6)CCC5)NC#N)cnn3C2)C1 (stereo in doubt) [Example 63, (R,6S)—N-cyano-N′-((8-fluoro-1,2,3,5,6,7-hexahydro-s-indacen-4-yl)carbamoyl)-6-(3-methoxyazetidin-1-yl)-6,7-dihydro-5H-pyrazolo[5,1-b][1,3]oxazine-3-sulfonimidamide, ammonia] | – |
| 320 | CN(C)[C@@H]1COc2c([S@@](=O)(=NC(=O)Nc3c4c(c(F)c5c3CCC5)CCC4)NC#N)cnn2C1 [Example 104, (R,6S)—N-cyano-6-(dimethylamino)-N′-((8-fluoro-1,2,3,5,6,7-hexahydro-s-indacen-4-yl)carbamoyl)-6,7-dihydro-5H-pyrazolo[5,1-b][1,3]oxazine-3-sulfonimidamide] | – |

Second part, the compound before the results:

| SMILES | IC50 [2] [nM] | also measured |
| --- | --- | --- |
| NS(=O)(=NC(=O)Nc1c2c(cc3c1CCC3)CCC2)c1cnn2c1CCCC2 (racemic) [Example 60, N′-((1,2,3,5,6,7-hexahydro-s-indacen-4-yl)carbamoyl)-4,5,6,7-tetrahydropyrazolo[1,5-a]pyridine-3-sulfonimidamide] | – | IC50 [1, 3]: 3640 nM |
| COc1cc(C(C)C)c(NC(=O)N=S(N)(=O)c2cnn3c2OCC(N2CC(OC)C2)C3)c(C(C)C)n1 (single isomer, unassigned) [Example 48] | – | IC50 [1, 3]: > 10000 nM |
| CNCCO[C@@H]1COc2c(S(N)(=O)=NC(=O)Nc3c4c(cc5c3CCC5)CCC4)cnn2C1 (single isomer, unassigned) [Example 57] | – | IC50 [1, 3]: 1670 nM |
| CC(=O)NS(=O)(=NC(=O)Nc1c2c(c(F)c3c1CCC3)CCC2)c1cnn2c1OCCC2 (single isomer, unassigned) [Example 95] | – | IC50 [1, 3]: 2230 nM |
| NS(=O)(=NC(=O)Nc1c2c(cc3c1CC3)CCC2)c1cnn2c1OCCC2 (single isomer, unassigned) [Example 142] | 84 | – |
| CC1CCc2cc3c(c(NC(=O)N=S(N)(=O)c4cnn5c4OCC5)c21)CCC3 (single isomer, unassigned) [Example 143] | 1200 | – |
| CC1CCc2cc3c(c(NC(=O)N=S(N)(=O)c4cnn5c4OCC5)c21)CCC3 (single isomer, unassigned) [Example 146] | 2600 | – |
| COC1COc2c(S(N)(=O)=NC(=O)Nc3c4c(cc5c3C(C)CC5)CCC4)cnn2C1 (single isomer, unassigned) [Example 149] | 650 | – |
| COC1COc2c(S(N)(=O)=NC(=O)Nc3c4c(cc5c3C(C)CC5)CCC4)cnn2C1 (single isomer, unassigned) [Example 150] | 24 | – |
| COc1cc(-c2ccc(NC(=O)N=S(N)(=O)c3cnn4c3OCC(OC)C4)c3c2CCC3)ccn1 (single isomer, unassigned) [Example 152] | 4100 | – |
| CC1(C)COc2c(S(N)(=O)=NC(=O)Nc3c4c(cc5c3CC(F)C5)CCC4)cnn2C1 (single isomer, unassigned) [Example 154] | 1800 | – |
| CC1(C)COc2c(S(N)(=O)=NC(=O)Nc3c4c(cc5c3CC(F)C5)CCC4)cnn2C1 (single isomer, unassigned) [Example 155] | 8 | – |
| Cn1ccc(S(=O)(=NC(=O)Nc2c3c(cc4c2CCC4)CCC3)NCc2ccccc2)n1 (stereo not shown) [Example 11, N′-benzyl-N-((1,2,3,5,6,7-hexahydro-s-indacen-4-yl)carbamoyl)-1-methyl-1H-pyrazole-3-sulfonimidamide] | – | IC50 [1, 3]: > 10000 nM |
| Cn1ccc(S(=O)(=NC(=O)Nc2c3c(cc4c2CCC4)CCC3)NCc2ccccc2)n1 (stereo not shown) [drawing 659] | – | IC50 ([1]; 10 uM nigericin, read-out: PBMC IL-1 β IC50): > 10000 nM |
